What was measured:
Trypanosoma cruzi [1] = experiment: (§1) GSK_TCAKS: pIC50 Trypanosoma cruzi Imaging: Infected Cells. […] Cells were then washed once with PBS before infection. T. cruzi trypomastigotes, collected at days 5 to 8 after infection from LLC-MK2 parasite infected cultures, were allowed to swim out for 4h at 37C from a centrifuged pellet (2,500 rpm/10 min/room temperature). Trypomastigotes were then collected and counted in a CASY Cell Counter. Trypomastigotes, in supplemented DMEM, were added to H9c2 cultures in a multiplicity of infection of 1 and incubated for 18 h. Cells were washed once with PBS before incubation of the infected H9c2 monolayer with trypsin (Life-Technologies) to detach cells from the flask. Cells were counted in a CASY Cell Counter using a 150 um capillary and their density set at 5 * 10^4 cells per mL in supplemented assay DMEM. Infected H9c2 were dispensed into 384-well poly-lysine coated assay plates at 50uL per well using a Multidrop Combi dispenser. After seeding them, the plates were incubated at 37C, 5% CO2 for 72h. Cultures were then fixed and stained by addition of 50 uL of a solution containing 8% formaldehyde and 4 uM DRAQ5 DNA dye (BioStatus, UK) per well. […] Five images were collected per well for reliable statistical analysis. Automated image analysis was performed with a script developed on Acapella High Content Imaging and Analysis Software (PerkinElmer). Output: percentage of infected cells per well as a second infection marker.; type: functional, organism-based, Rattus norvegicus; details: H9c2, 4 h
Trypanosoma cruzi [2] = experiment: GSK_TCAKS: pIC50 Trypanosoma cruzi viability assay using beta-GAL activity. This assay was run at single shot at 5uM compound concentration per well. The biological reagents consisted of NIH-3T3 host cells and trypomastigotes parasitic cells; both cell types were set to a 3.3 * 10^5 cells/mL dilution in assay DMEM by means of a CASY cell counter device using a 60um capillary. 6 uL of the mixture were dispensed per well (about 1 * 10^3 host-cells and 1 * 10^3 parasites) with a Multidrop Combi dispenser. […] In all wells, the percentage of DMSO never exceeded 0.5%. Plates incubated for four days at 37C, 5% CO2. The substrate used for the assay fluorescence intensity (FLINT) readout was resorufin-beta-D-galactopiranoside (Sigma-Aldrich) at 5uM per well. It was diluted in PBS supplemented with the soft detergent Igepal (Fluka).; type: functional, organism-based, Mus musculus; details: Tulahuen, NIH3T3
Leishmania donovani [3] = experiment: (§2) GSK_TCAKS: pIC50 Leishmania donovani Imaging: Amastigotes/Macrophages. Assay plates (384-well) were prepared by adding 250nL of compound to each well. For single shot assay, the final compound concentration was 5 uM. […] Automated image analysis was performed with a script developed on Acapella High Content Imaging and Analysis Software (PerkinElmer). Output: Average number of amastigotes per macrophage cell were reported for each well.; type: functional, organism-based, Homo sapiens; details: THP-1
[4] = target: Sterol 14-alpha demethylase (Trypanosoma cruzi (strain CL Brener), UniProt Q7Z1V1); experiment: GSK_TCAKS: pIC50 CYP51 from Trypanosoma cruzi.; type: functional
Trypanosoma cruzi [5] = experiment: GSK_TCAKS: pIC50 Trypanosoma cruzi Imaging: Amastigotes/Cell. […] Cells were then washed once with PBS before infection. T. cruzi trypomastigotes, collected at days 5 to 8 after infection from LLC-MK2 parasite infected cultures, were allowed to swim out for 4h at 37C from a centrifuged pellet (2,500 rpm/10 min/room temperature). Trypomastigotes were then collected and counted in a CASY Cell Counter. Trypomastigotes, in supplemented DMEM, were added to H9c2 cultures in a multiplicity of infection of 1 and incubated for 18 h. Cells were washed once with PBS before incubation of the infected H9c2 monolayer with trypsin (Life-Technologies) to detach cells from the flask. Cells were counted in a CASY Cell Counter using a 150 um capillary and their density set at 5 * 10^4 cells per mL in supplemented assay DMEM. Infected H9c2 were dispensed into 384-well poly-lysine coated assay plates at 50uL per well using a Multidrop Combi dispenser. After seeding them, the plates were incubated at 37C, 5% CO2 for 72h. Cultures were then fixed and stained by addition of 50 uL of a solution containing 8% formaldehyde and 4 uM DRAQ5 DNA dye (BioStatus, UK) per well. […] Five images were collected per well for reliable statistical analysis. Automated image analysis was performed with a script developed on Acapella High Content Imaging and Analysis Software (PerkinElmer). Output: number of amastigotes per cell as infection level measurement.; type: functional, organism-based, Rattus norvegicus; details: H9c2, 4 h
[6] = tested on: Trypanosoma brucei brucei; experiment: GSK_TCAKS: pIC50 Trypanosoma brucei viability assay using luminiscence. Assay plates (1536-well) were prepared. T. brucei cultures were harvested and counted in a CASY cell counter. A parasite suspension was prepared at a final concentration of 5 * 10^4 cells/mL in complete HMI9 medium and 6uL was dispensed to all wells containing compounds using a Multidrop Combi dispenser. 6uL of HMI9 media with 0.4% DMSO were dispensed to control columns. Plates were incubated for 24 h at 37C, 5% CO2 then tempered for 10 min at room temperature. ATP content was quantified by adding 4 uL of CellTiter-Glo Reagent (Promega) according to the manufacturer's instructions. Luminescence was measured using a ViewLux.; type: functional, organism-based; details: Lister 427, CASY
[7] = GSK_TCAKS: pIC50 HepG2 human cell line viability assay using luminiscence. […] Seeding density was checked to ensure that new mono-layers were not more than 50% confluent at the time of harvesting. Cell suspension was added to 500 mL of the same medium at a final density of 1.2 * 10^5 cells/mL. This cell suspension was dispensed (25 uL, 3000 cells per well) into 384-well clear-bottom plates using a Multidrop Combi dispenser. Prior to addition of the cell suspension, the screening compounds (250 nL) were pre-dispensed into the plates with an Echo liquid handler. Plates were incubated for 48 h at 37C, 5% CO2. After incubation, plates equilibrated at room temperature for 30 min before proceeding to develop the luminescent signal. The signal developer, CellTiter-Glo Reagent, was allowed to equilibrate at room temperature for 30 min and added to the plates (25uL per well) using a Multidrop Combi dispenser. Plates were left for 10 min at room temperature for stabilization and then read using a ViewLux.; type: toxicity, cell-based
Leishmania donovani [8] = experiment: as §2, with “THP-1 Host Macrophages.” for “Amastigotes/Macrophages.”, “THP-1” for “Average number of amastigotes per macrophage”, “cell count” for “cell”; type: functional, organism-based, Homo sapiens
[9] = tested on: Trypanosoma brucei brucei; experiment: GSK_TCAKS: pIC50 Trypanosoma brucei viability assay using fluorescence intensity. Assay plates (1536-well) were prepared by dispensing 25nL of compound solution per well using an Echo acoustic dispenser (Labcyte).; type: functional, organism-based; details: Lister 427, 2 h
Leishmania donovani [10] = experiment: as §2, with “Infected Macrophages.” for “Amastigotes/Macrophages.”, “Percent” for “Average number”, “infected” for “amastigotes per”, “cells” for “cell”; type: functional, organism-based, Homo sapiens; details: THP-1
Trypanosoma cruzi [11] = experiment: as §1, with “H2C9” for “Trypanosoma cruzi”, “H9c2 Host Cardiomyocytes.” for “Infected Cells.”, “Number” for “percentage”, “H9c2 Host Cardiomyocytes nuclei to determine drug-related cytotoxicity.” for “infected cells per well as a second infection marker.”; type: functional, organism-based, Rattus norvegicus; details: H9c2, 4 h
Leishmania donovani [12] = experiment: GSK_TCAKS: pIC50 Leishmania donovani viability assay using fluorescence intensity. Assay plates (1536-well) were prepared by adding 30nL per well of compound. For single shot assay, the final compound concentration was 5uM. […] Briefly, eGFP LdBOB axenic amastigotes were harvested, fixed and counted in a CASY cell counter (Roche-Applied Science). A final concentration of 1.5 * 10^5 cells per well were prepared in amastigote media containing 500 U/mL penicillin/streptomycin (Invitrogen) and 6uL was dispensed to each experimental well using a Multidrop Combi dispenser (Thermo Scientific). 6uL of assay media was dispensed to control columns used as reference for 100% compound response. Following incubation for 72 h at 37C, 5% CO2, 2 uL of resazurin was added to each well at a final concentration of 0.5 mM in phosphate buffered saline (PBS) with IGEPAL (Sigma-Aldrich), 0.05% (v/v).; type: functional, organism-based

Chain of Sterol 14-alpha demethylase (Q7Z1V1 whole entry): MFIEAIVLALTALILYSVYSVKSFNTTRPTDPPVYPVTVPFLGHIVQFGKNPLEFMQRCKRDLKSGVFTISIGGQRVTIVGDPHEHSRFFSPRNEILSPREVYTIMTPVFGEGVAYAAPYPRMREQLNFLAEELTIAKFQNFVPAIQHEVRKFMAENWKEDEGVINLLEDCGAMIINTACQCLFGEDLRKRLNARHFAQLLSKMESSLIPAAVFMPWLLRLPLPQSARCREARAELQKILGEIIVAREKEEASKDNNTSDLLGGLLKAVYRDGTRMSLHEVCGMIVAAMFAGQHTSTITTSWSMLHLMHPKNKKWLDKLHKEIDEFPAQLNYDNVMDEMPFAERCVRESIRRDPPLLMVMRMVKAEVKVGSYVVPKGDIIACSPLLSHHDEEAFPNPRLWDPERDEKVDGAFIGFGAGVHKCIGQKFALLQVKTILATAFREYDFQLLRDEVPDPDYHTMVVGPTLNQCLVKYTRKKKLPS

SMILES | IC50 (Trypanosoma cruzi [1]) [nM] | IC50 (Trypanosoma cruzi [2]) [nM] | IC50 (Leishmania donovani [3]) [nM] | IC50 [4] [nM] | IC50 (Trypanosoma cruzi [5]) [nM] | IC50 [6] [nM] | IC50 at 48 h [7] [nM] | IC50 (Leishmania donovani [8]) [nM] | IC50 [9] [nM] | IC50 (Leishmania donovani [10]) [nM] | IC50 (Trypanosoma cruzi [11]) [nM] | IC50 (Leishmania donovani [12]) [nM]
COc1ccc2ncc(Cl)c(CCN3CC[C@H](NCc4cc5c(cn4)OCS5)[C@@H](O)C3)c2n1 | 158 | 126 | 501 | 7940 | 100 | 631 | 25100 | 6310 | 316 | 1000 | 10000 | 2000
C[C@@H](Oc1cc(-n2cnc3ccc(O[C@H]4CCNC4)cc32)sc1C(N)=O)c1ccccc1Cl | 12600 | 3160 | 5010 | 1260 | 6310 | 794 | 15800 | 6310 | 251 | 7940 | 631 | > 50100
O=C(Cc1ccccc1)Nc1ccccc1C(=O)Nc1nccs1 | > 50100 | 39800 | > 50100 | > 100000 | > 50100 | 251 | > 100000 | > 50100 | 251 | > 50100 | > 50100 | > 50100
CC(C)(C)c1csc(NC(=O)c2ccc([N+](=O)[O-])s2)n1 | 316 | 158 | 2510 | 7940 | 200 | 1580 | 50100 | > 50100 | 200 | 3160 | 12600 | 1580
CCN(Cc1nc2ccc(C(=O)N3CCN(c4ncccn4)CC3)cc2[nH]1)C1CCCc2cccnc21 (stereo not drawn) | 12600 | 1260 | 1580 | 7940 | 2000 | 5010 | > 100000 | 20000 | 2510 | 3980 | 15800 | 5010
O=C(Nc1nc(-c2ccc(F)cc2)cs1)c1ccc([N+](=O)[O-])s1 | 251 | 200 | 1000 | 50100 | 158 | 1260 | 12600 | 7940 | 251 | 1260 | 3980 | 631
COc1ccc(-c2csc(NC(=O)c3ccc([N+](=O)[O-])s3)n2)cc1 | 251 | 158 | 1580 | > 100000 | 200 | 794 | > 100000 | > 50100 | 79.4 | 3980 | 31600 | 3160
CN(Cc1nc2cccc(C(=O)N3CCN(Cc4ccccc4)CC3)c2[nH]1)C1CCCc2cccnc21 (stereo not drawn) | 501 | 794 | 794 | 39800 | 501 | 1000 | 12600 | 10000 | 631 | 1260 | 7940 | 5010
O=C(COc1ccccc1)Nc1ccccc1C(=O)Nc1nccs1 | > 50100 | > 50100 | > 50100 | > 100000 | > 50100 | 631 | > 100000 | 7940 | 398 | > 50100 | > 50100 | > 50100

Reference: ChEMBL document CHEMBL3430912, “GSK Tres Cantos Anti-Kinetoplastid Screening (TCAKS) Data”
